This passage reports cytotoxicity results from ChEMBL document CHEMBL3507680, “University of Dundee, Gates Library screen for HepG2 cell viability”.

This data set can be described thus: Human HepG2 cell viability assay in 384 well format. The class given is toxicity, cell-based. Set-up: dose 125 nL, time 70.5 hour; concentration not given beside the values. Conditions: HepG2 cells, read-out: Inhibition.

Molecules are shown by their SMILES.

As for `CC(C)CCN1C2(CCN(c3ncccn3)C2)c2ccccc2S1(=O)=O` (centres undefined), the cytotoxicity at 70.5 h was -11.6%.
For `Fc1cnc(N2CCO[C@H]3CN(CC4CCOC4)C[C@H]32)nc1` (some centres undefined), the cytotoxicity at 70.5 h came to 26.2%.
On to `Cc1ccc(CN2CC3(CCN(C(=O)Cc4ccc(Cl)cc4)C3)C2)o1`, for which the cytotoxicity at 70.5 h is -5.73%.
Consider `CC[C@@H]1N(Cc2ccccn2)CCC[C@]12CCC(=O)N2CCOC`, for which the cytotoxicity at 70.5 h was -5.82%.
For `CC(C)NC(=O)[C@]12COC[C@H]1CN(Cc1cnn(C)c1)C2`, the cytotoxicity at 70.5 h is -4.74%.
With `COC(=O)CCC(=O)N1CCC2(CN(Cc3ccccc3F)C2)C1`, the cytotoxicity at 70.5 h was -7.6%.
For `CN(C)CCO[C@@H]1CC[C@H]2[C@H]1OCCN2C(=O)c1ccccc1F` the value was -10.8%; for `Cn1cccc1CN1CCc2ncnc(-c3cccnc3)c2CC1`, -4.34%.
As for `CN(C)CCO[C@@H]1CC[C@H]2[C@H]1OCCN2C(=O)c1ccncc1`, the cytotoxicity at 70.5 h is -3.32%.
Regarding `Cc1cccc(C(=O)N2CCO[C@H]3[C@H](OCCN(C)C)CC[C@@H]32)n1`, the cytotoxicity at 70.5 h is -3.76%.
For the compound `CC1=N[C@@]2(CC[C@@H]3CN(C(=O)NC(C)C)C[C@@H]32)C(=O)N1CC1CC1`, the cytotoxicity at 70.5 h was 1.82%.
For `COCCN1C[C@@H](C)[C@@]2(COCCN(C(=O)c3ccoc3)C2)C1` the value was 1.95%; for `COCC(=O)N1CC[C@H]2OCC[C@@]2(c2nc(C)no2)C1`, 12.4%; for `CN(C)c1ncnc2c1CCN(c1cc(C(F)(F)F)ncn1)CC2`, -1.26%.
On to `CO[C@@H]1CCN(S(=O)(=O)c2cn(C)cn2)[C@H]1Cc1ccccc1`, for which the cytotoxicity at 70.5 h was -1.49%.
For `CO[C@H]1CCN(S(=O)(=O)c2cn(C)cn2)[C@H]1Cc1ccncc1`, the cytotoxicity at 70.5 h was -0.309%.
For `Cn1cc(CN2CCc3ncn(C)c3C2COCc2ccccc2)cn1` (centres undefined) the value was 2.01%; for `Cn1cnc2c1C(COCc1cccnc1)N(Cc1ccccc1)CC2` (centres undefined), 2.08%.
Regarding `CCN1C(=O)[C@]2(CC[C@@H]3CN(C(=O)NCC(C)C)C[C@@H]32)N=C1C`, the cytotoxicity at 70.5 h was -2.72%.
As for `CC1=N[C@@]2(CC[C@@H]3CN(C(=O)NC(C)C)C[C@@H]32)C(=O)N1CC(C)C`, the cytotoxicity at 70.5 h is -3.41%.
`Cc1nc(COCc2cnc3n2CCN(C(=O)C2CC2)C3C)cs1` (centres undefined): the cytotoxicity at 70.5 h turned out to be 11.4%.
For `Cn1cc(N2CC3(CCN(S(C)(=O)=O)C3)CC2=O)cn1` (centres undefined) the value was 2.06%.
Next, `CC(C)Oc1ncnc2c1CCN(Cc1cccs1)CC2`: -6.72%; `COCC1CN(Cc2cc(C)on2)Cc2cn(C)nc21` (centres undefined): 3.15%; `O=C1NC(c2ccccc2)=N[C@@]12CC[C@@H]1CN(Cc3ccco3)C[C@@H]12`: -5.19%.
For `O=C([C@H]1C[C@@H]2CCN(c3cccc(F)c3)C[C@H]2O1)N1CCCCO1` the value was -13.4%.
On to `CC[C@@H]1N(Cc2ccc(OC)cc2)CCC[C@]12CCC(=O)N2CCOC`, for which the cytotoxicity at 70.5 h came out at 16.8%.
For `CS(=O)(=O)NC[C@@H]1OC[C@H]2CN(Cc3ccsc3)CC[C@H]21` the value was 18.6%; for `CC[C@@H]1N(Cc2ccc(F)cc2)CCC[C@]12CCC(=O)N2CCOC`, 10.3%.
For `Fc1cnc(N2CCO[C@H]3CN(CC4CCCCC4)C[C@H]32)nc1` the value was 17.9%; for `CN(C)CCO[C@@H]1CC[C@H]2[C@H]1OCCN2C(=O)c1ccc(F)cc1`, -1.79%; for `CC[C@@H]1N(Cc2nccs2)CCC[C@]12CCC(=O)N2CCOC`, -2.16%.
As for `C[C@H]1CN(C)C[C@@]12COCCN(C(=O)Cc1ccccc1)C2`, the cytotoxicity at 70.5 h is 0.777%.
Regarding `c1csc(CN2CCCn3cnc(COCC4CC4)c3C2)n1`, the cytotoxicity at 70.5 h is -0.793%.
As to `COc1ccc(C[C@H]2CN(c3cc(OC)ncn3)CC[C@@H]2OC)cc1`, the cytotoxicity at 70.5 h is 4.78%.
For `O=C(NCC1CC1)[C@@H]1CCO[C@@H]2CCN(c3ncccn3)C[C@@H]21` the value was -3.18%; for `CC(=O)N1CC(=O)N(c2ccccc2)CC12CCN(Cc1nccs1)C2` (centres undefined), -3.72%; for `CC(C)NC(=O)[C@H]1C[C@@H]2[C@@H](C1)OCCN2Cc1cnn(C)c1`, -4.89%.
In the case of `Cn1cc(CN2CCn3c(CNC(=O)c4cccn4C)cnc3C2)cn1`, the cytotoxicity at 70.5 h stood at 4.31%.
`O=C(N[C@@H]1CN(Cc2ccccc2)C[C@@H]2CCCO[C@@H]21)C1CC1`: the cytotoxicity at 70.5 h is -1.76%.
Turning to `Cc1occc1C(=O)N1CCC[C@]2(C[C@@H](OCc3ccncc3)CO2)C1`, the cytotoxicity at 70.5 h is 6.49%.
With `Cc1ccc(CN2CCC[C@]3(C(=O)O)CN(c4ncccn4)C[C@@H]3C2)o1`, the cytotoxicity at 70.5 h is 0.612%.
On to `COc1ccc(C[C@H]2CN(c3nnc(C)s3)CC[C@@H]2OC)cc1`, for which the cytotoxicity at 70.5 h is -0.42%.
`CN(C)CCOCc1nnc2n1CCN(Cc1ccoc1)CC2`: the cytotoxicity at 70.5 h was 36.2%.
Turning to `CN(C)CCOCc1nnc2n1CCN(Cc1ccc(F)cc1)CC2`, the cytotoxicity at 70.5 h turned out to be 23.8%.
As for `c1cncc(-c2ncnc3c2CCN(Cc2ccsc2)CC3)c1`, the cytotoxicity at 70.5 h was 19.2%.
For `CN(C)C(=O)COCC1CN(Cc2cccs2)Cc2ncn(C)c21` (centres undefined), the cytotoxicity at 70.5 h is 17.3%.
As for `CN(C)C(=O)COCC1CN(C2CCC2)Cc2ncn(C)c21` (centres undefined), the cytotoxicity at 70.5 h turned out to be 22.5%.
For the compound `c1cncc(-c2ncnc3c2CCN(Cc2cccs2)CC3)c1`, the cytotoxicity at 70.5 h is 16.4%.
Next, `CN(C)C(=O)COCC1CN(Cc2ccoc2)Cc2ncn(C)c21` (centres undefined): -3.96%.
Consider `c1cnc(N2CCO[C@H]3CN(CC4CC4)C[C@H]32)nc1`, for which the cytotoxicity at 70.5 h was -8.99%.
For `O=C(NCc1ccccn1)[C@]12COC[C@H]1CN(Cc1ccccc1F)C2` the value was -7.42%; for `O=C(c1cccnc1)N1CCN2C[C@H](Oc3cncnc3)C[C@H]2C1`, -1.31%.
Next, `c1ccc(NCc2cn3c(n2)CN(Cc2cccs2)CC3)nc1`: 8.31%.
For `c1cc(CN2CCCn3cnc(COCC4CC4)c3C2)ccn1` the value was -2.95%; for `O=C(O)[C@]12CCCN(Cc3ccncc3)C[C@H]1CN(c1ncccn1)C2`, 2.52%; for `c1ccc(CN2CCc3ncnc(C4CCOC4)c3CC2)nc1` (centres undefined), -2.85%.
With `Cc1cccc(CN2C[C@H](NS(C)(=O)=O)[C@@H]3OCCC[C@@H]32)n1`, the cytotoxicity at 70.5 h came to 4.73%.
Take `c1coc(CN2CCCC3(COCCN(Cc4c[nH]nn4)C3)C2)c1` (centres undefined): the cytotoxicity at 70.5 h is -2.53%.
For the compound `CN(Cc1cccnc1)Cc1cn2c(n1)CN(C1CCOC1)CC2` (centres undefined), the cytotoxicity at 70.5 h was -6.14%.
For `O=C(NCc1ccccn1)[C@]12COC[C@H]1CN(Cc1cccnc1)C2`, the cytotoxicity at 70.5 h is -7.77%.
`Cc1ccc(CN2CC[C@@H]3[C@@H](CO[C@H]3CN3CCN(C)CC3)C2)s1`: the cytotoxicity at 70.5 h came to 14.3%.
Turning to `Cc1ccc(CN2CC[C@@H]3[C@@H](CO[C@H]3CN3CCN(C)CC3)C2)cc1`, the cytotoxicity at 70.5 h is -0.515%.
As to `CN1CCN(Cc2cnc3n2CCN(Cc2cccnc2)CC3)CC1`, the cytotoxicity at 70.5 h is -1.41%.
